This is an account of results in PMC8955139, “Identifying HSV-1 Inhibitors from Natural Compounds via Virtual Screening Targeting Surface Glycoprotein D” (Pharmaceuticals, 2022).

The structures appear in SMILES notation. Read-outs that look alike come from different tables or passages of the source. Some results are limits rather than exact numbers.

As a reminder, the EC50 is the concentration giving half of the maximal effect. By inhibition is commonly meant the share of the control response that was lost under treatment. As a reminder, the viability is a read-out of living cells in per cent, often relative to untreated cells.

Data set [1] concerns HSV-1 strain F. Put plainly: Time of addition cytopathic effect (CPE) inhibition assay. It counts as cell-based. The note with it: for Antiherpetic activity in the in vitro assays: CPE inhibition, all stages, #28 at 10 µg/mL, #29 at 1 µg/mL. (Damage to the host cells serves as the signal in cytopathic effect assays.)
Data set [2] relates to HSV-1 strain F. Put plainly: Plaque reduction dose-response assay in VERO cells. It counts as cell-based. Conditions: for EC50: Human alphaherpesvirus 1, plaque reduction.
Data set [3] relates to HSV-1. Put plainly: Pre-treatment of cells with AC#7 before HSV-1 infection (Figure S2). It counts as cell-based.
Data set [4] in a line: Cytotoxicity of ACs, WST-1, 24 h. Conditions: African green monkey, VERO cells.
Data set [5] has as its system VERO cells. Put plainly: Cytotoxicity of ACs, WST-1, 24 h. The note with it: for Toxicity at the highest concentration tested compared with DMSO control: 100 µg/mL; for Highest Concentration with Cell Viability above 75%: 24 h, WST-1, tested 0.1-100 µg/mL; for Toxicity to the cells: 10 µg/mL.
Data set [6] concerns VERO cells. As to the kind of experiment: Toxicity of AC#7 on VERO cells at high concentration (800 µM, 2 h exposure, 46 h). Conditions: viability 46 h later, WST-1.
The next data set in a line: in vitro. The note with it: African green monkey.
Data set [7] relates to HSV-1. Conditions: cited from earlier work.
A further data set relates to ACV-resistant HSV-1. More on the design: method as in PMID 9660995. The note with it: in vivo; cited from earlier work.
The subject of a further data set is SARS-CoV 3CLpro. Conditions: cited from earlier work.

For the compound `O=C(/C=C1\NCCc2cc3c(cc21)OCO3)c1cc2ccccc2o1` [AC#7, 1-(1-benzofuran-2-yl)-2-[(5Z)-2H,6H,7H,8H-[1,3]dioxolo [4,5-g]isoquinoline-5-ylidene]ethenone], in the data set with HSV-1 strain F [1] (10 µg/mL, virus preincubated with AC 1 h, MOI 5, VERO, vs DMSO control), the “Antiviral activity at the viral inactivation stage” value is reported as “significantly higher activity than the DMSO control”. For the same compound, the “Reduction of virus-induced plaques compared to DMSO control” value with HSV-1 strain F [2] (25 µM, virus preincubated 1 h, VERO) is given as “significantly reduced the number of virus-induced plaques”. Moreover, the “Dose dependence of antiviral response” value in the data set with HSV-1 strain F [2] (6.25-400 µM, pre-incubated with the virus, vs DMSO control) is on record as “dose-dependent antiviral response”. Also, a half-maximal response in the data set with HSV-1 strain F [2] (virus preincubated with AC 1 h, VERO) (EC50) required 61 µg/mL. The compound also yielded an EC50 with HSV-1 strain F [2] (virus preincubated with AC 1 h, VERO, asymmetric nonlinear regression R2 = 0.84) of 183 µM. In addition, in the data set on HSV-1 [3] (10 µg/mL, 1 h before infection, MOI 5, VERO), the “Antiviral activity when cells were preincubated with AC prior to HSV-1 infection” value was “No antiviral activity”. Also, the Cell survival rate in the data set on HSV-1 [3] (10 µg/mL, cells pre-treated 1 h, MOI=5, 48 h) is 7.7%. Besides, the inhibition at 10 µg/mL with HSV-1 [3] (Human alphaherpesvirus 1, cells pre-treated 1 h, MOI=5, 48 h) was found to be 0%. For the same compound, the viability at 24 h in data set [4] stood at 124%. In addition, in the data set with VERO cells [5], the “Toxicity at the highest concentration tested compared with DMSO control” value (shortened to “Toxicity … compared with DMSO control”) was “negligible toxicity” and the “Highest Concentration with Cell Viability above 75%” value was greater than 100 µg/mL. Besides, in the data set with VERO cells [6], the “Toxicity to VERO cells” value is on record as “Negligible toxicity”.

Regarding `CN1CCN(C(=O)CCn2c3c(c4ccccc42)CCn2c-3nc3ccccc3c2=O)CC1` [AC#10, 13-[3-(4-methylpiperazin-1-yl)-3-oxopropyl]-8,13-dihydroindolo[2′,3′:3,4] pyrido [2,1-b]quinazolin-5(7H)-one], in data set [4], the viability at 24 h is 73.2%. Further, in the data set with VERO cells [5], the “Toxicity to the cells” value is listed as “exhibited toxicity” and the “Highest Concentration with Cell Viability above 75%” value was 1 µg/mL.

For the compound `C[C@H]1CCC[C@]2(C)C[C@H]3OC(=O)[C@H](CN4CCN(c5ccccc5)CC4)[C@H]3[C@@H]3O[C@@]132` [AC#16, (1Ar,2S,5Ar,6Ar,9S,9Ar,9Bs)-2,5a-dimethyl-9-((4-phenylpiperazin-1-yl)methyl)octahydro-2H-oxireno[2′,3′:4,4a]naphtho[2,3-b]furan-8(9Bh)-one], the viability at 24 h in data set [4] amounted to 102%. Further, in the data set on VERO cells [5], the “Toxicity to the cells” value is “exhibited toxicity” and the “Highest Concentration with Cell Viability above 75%” value was found to be 1 µg/mL.

As for `Cc1ccc(Cl)cc1N1CCN(C[C@H]2C(=O)O[C@@H]3C[C@@]4(C)CCC[C@H](C)[C@@]45O[C@H]5[C@@H]32)CC1` [AC#17, (1Ar,2S,5Ar,6Ar,9S,9Ar,9Bs)-9-( (4-(5-chloro-2-methylphenyl)piperazin-1-yl)methyl)-2,5a-dimethyloctahydro-2H-oxireno[2′,3′:4,4a]naphtho[2,3-b]furan-8(9Bh)-one], the viability at 24 h in [4] was found to be 96.8%. Also, in the data set on VERO cells [5], the “Toxicity to the cells” value is on record as “exhibited toxicity” and the “Highest Concentration with Cell Viability above 75%” value turned out to be 1 µg/mL.

Take `O=c1c(-c2c3cn[nH]c3nc3c2oc2cc(O)ccc23)cc2cccc3c2n1CC3` [AC#27]: the “Antiviral activity at the post-entry stage” value in the data set on HSV-1 strain F [1] (10 µg/mL, AC added 1 h after infection, MOI 5, VERO) was “possess antiherpetic activity”. For the same compound, in data set [4], the viability at 24 h stood at 106%. In the data set on VERO cells [5], the “Toxicity … compared with DMSO control” value was “negligible toxicity” and the “Highest Concentration with Cell Viability above 75%” value is reported as greater than 100 µg/mL.

With `O=C(CC1NC(=O)c2ccccc21)Nc1ccc2c(c1)C(=O)N1CCC[C@H]1C(=O)N2` (stereo partly drawn) [AC#28, N-((S)-5,11-dioxo-2,3,5,10,11,11a-hexahydro-1H-benzo[e]pyrrolo[1,2-a][1,4]diazepin-7-yl)-2-(3-oxoisoindolin-1-yl)acetamide], the “Antiherpetic activity in the in vitro assays” value in the data set on HSV-1 strain F [1] was “failed to show antiherpetic activity”. Moreover, in [4], the viability at 24 h is 105%. In the data set on VERO cells [5], the “Toxicity … compared with DMSO control” value was “negligible toxicity” and the “Highest Concentration with Cell Viability above 75%” value is greater than 100 µg/mL.

As for `O=C1NC(=O)c2c1c1c3ccccc3[nH]c1c1[nH]c3ccccc3c21` [AC#29, Arcyriaflavin A], the “Antiherpetic activity in the in vitro assays” value with HSV-1 strain F [1] is recorded as “failed to show antiherpetic activity”. Besides, the viability at 24 h in the data set “in vitro” was 86.2%.

As to `Nc1nc2c(ncn2COCCO)c(=O)[nH]1` [ACV, 9-((2-Hydroxyethoxy)methyl) guanine, reference compound], the concentration giving a half-maximal response (EC50) is 0.77 µM with HSV-1 strain F [2] (added post-HSV infection, VERO, R2 > 0.99) and roughly 1 µM in the data set on HSV-1 [7] (in vitro).

Turning to `CC[C@@H](NC(=O)[C@@H](CC(=O)[C@@H](CC(=O)[C@@H](NC(=O)[C@H](C(C)C)N(C)C(=O)[C@H](C)CC1CCCCC1)C(C)(C)C)CC(=O)C(C)(C)C)C1(C(=O)O)CCCC1)C(C)(C)C` [BILD 1633 SE], in the data set with HSV-1 [7] (in vitro), the “Antiviral activity in vitro relative to ACV” value was “higher antiviral activity than ACV”. Moreover, the “Therapeutic effect against ACV-resistant HSV-1 infections” value in the data set on ACV-resistant HSV-1 is on record as “potent therapeutic effect”.

On to `COc1cc(/C=C/C(=O)CC(=O)/C=C/c2ccc(O)c(OC)c2)ccc1O` [curcumin], for which, in the data set with HSV-1 [7] (antiviral activity), the EC50 was 89.6 µM.

Regarding `Cc1cc(O)c2c(c1)C(=O)c1cc(O)cc(O)c1C2=O` [emodin], the EC50 in the data set with HSV-1 [7] (antiviral activity) is 21.5 to 195 µM.

Turning to `O=C(O[C@@H]1Cc2c(O)cc(O)cc2O[C@@H]1c1cc(O)c(O)c(O)c1)c1cc(O)c(O)c(O)c1` [epigallocatechin gallate], in the data set with HSV-1 [7] (antiviral activity), the EC50 is 12.5 to 50 µM.

For the compound `CCOC(=O)/C=C/[C@H](C[C@@H]1CCNC1=O)NC(=O)[C@@H](CC(=O)[C@@H](NC(=O)c1cc(C)on1)C(C)C)Cc1ccc(F)cc1` [rupintrivir], the “Inhibition of SARS-CoV 3CLpro” value in the data set with SARS-CoV 3CLpro is given as “weak to undetectable inhibition”.
